# Measured values taken from PubChem BioAssay (NCI).
#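 Assay format: 96-well plates, 48-hour exposure. The concentration for full growth arrest is given as TGI.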
# Tested on: MDA-MB-435
# Test: inhibition of tumour cell growth, NCI panel, 48 h
row,SMILES,TGI
1,CO[C@@]12C[C@@H](C)C3=CCC(C)=C3CC1=C(C)C(=O)O2,> 100 µM
2,N=C(N)C1CN(CCc2c[nH]c3ccccc23)C(=O)NC1=O (centres undefined),> 100 µM
3,CC1(C)[C@@H](Cn2ccc(=O)[nH]c2=O)CC[C@@]1(C)CO,> 100 µM
4,Cn1c(=O)c2c(ncn2CCNC(CO)C(O)c2ccc([N+](=O)[O-])cc2)n(C)c1=O (centres undefined),> 100 µM
5,CCCNC(=O)NNC(=O)c1c[nH]c2nc(C)ccc2c1=O,> 100 µM
6,C=CCCON(C(=O)OC(C)(C)C)C(C)(C)C,> 100 µM
7,NC(N)=NS(=O)(=O)c1ccc(NNc2c3ccccc3nc3c(C(=O)Nc4ccc(S(=O)(=O)Nc5ncccn5)cc4)cccc23)cc1,> 100 µM
8,O=c1oc2ccccc2cc1-c1cc2ccccn2c1,> 100 µM
9,CC(=O)CCn1c(=S)sc2ccccc21,> 100 µM
10,CCO/C(O)=C(/C(=N)N1CCOCC1)C(=O)Nc1ccc(F)cc1,> 100 µM
11,C[C@H]1[C@H]2[C@H]3CC[C@@H]4[C@@]5(C)CC[C@H](O)C(C)(C)[C@@H]5CC[C@@]4(C)[C@]3(C)C[C@H](O)[C@@]2(C)C[C@H]2O[C@]21C,46 µM
12,N#C[C@H](c1ccccn1)c1nc2ccccc2nc1Cl,> 100 µM
13,O=C1COc2cccnc2N1CCCCO,> 100 µM
14,CCOC(=O)NC(Nc1ccc(C)cc1)(C(F)(F)F)C(F)(F)F,> 100 µM

# Tested on: NCI/ADR-RES ovarian
# Test: inhibition of tumour cell growth, NCI panel, 48 h
row,SMILES,TGI
1,Cc1ccc(S(=O)(=O)c2[nH]cc(/C(=C\C3CCCCC3)[N+](=O)[O-])c2C2CCCCC2)cc1,19.9 µM
2,Nc1ccc2c(c1)C(=O)N1CCC[C@H]1C(=O)N2,> 100 µM
3,CO/N=C(\C(=O)OC(=NC1CCCCC1)NC1CCCCC1)c1csc(NC(c2ccccc2)(c2ccccc2)c2ccccc2)n1,> 10 µM
4,CC1(C)C(C#N)C1C1=C(N2CCOCC2)[C@]2(C)C(OC(=O)c3ccccc3)CC[C@@H]2C1 (some centres undefined),> 100 µM
5,N#Cc1n[nH]n(-c2ccc(Br)cc2)c1=O,> 100 µM
6,CO[C@@]12C[C@@H](C)C3=CCC(C)=C3CC1=C(C)C(=O)O2,> 100 µM
7,N=C(N)C1CN(CCc2c[nH]c3ccccc23)C(=O)NC1=O (centres undefined),> 100 µM
8,CC1(C)[C@@H](Cn2ccc(=O)[nH]c2=O)CC[C@@]1(C)CO,> 100 µM
9,Cn1c(=O)c2c(ncn2CCNC(CO)C(O)c2ccc([N+](=O)[O-])cc2)n(C)c1=O (centres undefined),> 100 µM
10,CCCNC(=O)NNC(=O)c1c[nH]c2nc(C)ccc2c1=O,> 100 µM
11,C=CCCON(C(=O)OC(C)(C)C)C(C)(C)C,> 100 µM
12,NC(N)=NS(=O)(=O)c1ccc(NNc2c3ccccc3nc3c(C(=O)Nc4ccc(S(=O)(=O)Nc5ncccn5)cc4)cccc23)cc1,> 100 µM
13,O=c1oc2ccccc2cc1-c1cc2ccccn2c1,> 100 µM
14,CC(=O)CCn1c(=S)sc2ccccc21,> 100 µM
15,CC1CC(OP(=O)(OCc2ccccc2)OCc2ccccc2)[C@@H](OCc2ccccc2)C(OCc2ccccc2)C1OCc1ccccc1 (some centres undefined),> 100 µM
16,CCO/C(O)=C(/C(=N)N1CCOCC1)C(=O)Nc1ccc(F)cc1,> 100 µM
17,C[C@H]1[C@H]2[C@H]3CC[C@@H]4[C@@]5(C)CC[C@H](O)C(C)(C)[C@@H]5CC[C@@]4(C)[C@]3(C)C[C@H](O)[C@@]2(C)C[C@H]2O[C@]21C,51.8 µM
18,N#C[C@H](c1ccccn1)c1nc2ccccc2nc1Cl,> 100 µM
19,O=C(O)CCCc1nc2c(n1Cc1ccccc1)C(=O)c1ccccc1C2=O,> 100 µM
20,CCOC(=O)NC(Nc1ccc(C)cc1)(C(F)(F)F)C(F)(F)F,> 100 µM

# Tested on: MOLT-4 leukemia
# Test: inhibition of tumour cell growth, NCI panel, 48 h
row,SMILES,TGI
1,Cc1ccc(S(=O)(=O)c2[nH]cc(/C(=C\C3CCCCC3)[N+](=O)[O-])c2C2CCCCC2)cc1,0.94 µM
2,Nc1ccc2c(c1)C(=O)N1CCC[C@H]1C(=O)N2,> 100 µM
3,CO/N=C(\C(=O)OC(=NC1CCCCC1)NC1CCCCC1)c1csc(NC(c2ccccc2)(c2ccccc2)c2ccccc2)n1,> 10 µM
4,CC1(C)C(C#N)C1C1=C(N2CCOCC2)[C@]2(C)C(OC(=O)c3ccccc3)CC[C@@H]2C1 (some centres undefined),> 100 µM
5,CO[C@@]12C[C@@H](C)C3=CCC(C)=C3CC1=C(C)C(=O)O2,> 100 µM
6,N=C(N)C1CN(CCc2c[nH]c3ccccc23)C(=O)NC1=O (centres undefined),> 100 µM
7,Cn1c(=O)c2c(ncn2CCNC(CO)C(O)c2ccc([N+](=O)[O-])cc2)n(C)c1=O (centres undefined),> 100 µM
8,CCCNC(=O)NNC(=O)c1c[nH]c2nc(C)ccc2c1=O,> 100 µM
9,C=CCCON(C(=O)OC(C)(C)C)C(C)(C)C,> 100 µM
10,NC(N)=NS(=O)(=O)c1ccc(NNc2c3ccccc3nc3c(C(=O)Nc4ccc(S(=O)(=O)Nc5ncccn5)cc4)cccc23)cc1,> 100 µM
11,O=c1oc2ccccc2cc1-c1cc2ccccn2c1,> 100 µM
12,CC(=O)CCn1c(=S)sc2ccccc21,> 100 µM
13,CC1CC(OP(=O)(OCc2ccccc2)OCc2ccccc2)[C@@H](OCc2ccccc2)C(OCc2ccccc2)C1OCc1ccccc1 (some centres undefined),> 100 µM
14,CCO/C(O)=C(/C(=N)N1CCOCC1)C(=O)Nc1ccc(F)cc1,> 100 µM
15,C[C@H]1[C@H]2[C@H]3CC[C@@H]4[C@@]5(C)CC[C@H](O)C(C)(C)[C@@H]5CC[C@@]4(C)[C@]3(C)C[C@H](O)[C@@]2(C)C[C@H]2O[C@]21C,> 100 µM
16,N#C[C@H](c1ccccn1)c1nc2ccccc2nc1Cl,> 100 µM
17,O=C1COc2cccnc2N1CCCCO,> 100 µM
18,O=C(O)CCCc1nc2c(n1Cc1ccccc1)C(=O)c1ccccc1C2=O,> 100 µM
19,CCOC(=O)NC(Nc1ccc(C)cc1)(C(F)(F)F)C(F)(F)F,> 100 µM

# Tested on: UACC-257 melanoma
# Test: inhibition of tumour cell growth, NCI panel, 48 h
row,SMILES,TGI
1,Cc1ccc(S(=O)(=O)c2[nH]cc(/C(=C\C3CCCCC3)[N+](=O)[O-])c2C2CCCCC2)cc1,1.2 µM
2,Nc1ccc2c(c1)C(=O)N1CCC[C@H]1C(=O)N2,> 100 µM
3,CO/N=C(\C(=O)OC(=NC1CCCCC1)NC1CCCCC1)c1csc(NC(c2ccccc2)(c2ccccc2)c2ccccc2)n1,> 10 µM
4,CC1(C)C(C#N)C1C1=C(N2CCOCC2)[C@]2(C)C(OC(=O)c3ccccc3)CC[C@@H]2C1 (some centres undefined),> 100 µM
5,N#Cc1n[nH]n(-c2ccc(Br)cc2)c1=O,> 100 µM
6,CO[C@@]12C[C@@H](C)C3=CCC(C)=C3CC1=C(C)C(=O)O2,> 100 µM
7,N=C(N)C1CN(CCc2c[nH]c3ccccc23)C(=O)NC1=O (centres undefined),> 100 µM
8,CC1(C)[C@@H](Cn2ccc(=O)[nH]c2=O)CC[C@@]1(C)CO,> 100 µM
9,Cn1c(=O)c2c(ncn2CCNC(CO)C(O)c2ccc([N+](=O)[O-])cc2)n(C)c1=O (centres undefined),> 100 µM
10,CCCNC(=O)NNC(=O)c1c[nH]c2nc(C)ccc2c1=O,> 100 µM
11,C=CCCON(C(=O)OC(C)(C)C)C(C)(C)C,> 100 µM
12,NC(N)=NS(=O)(=O)c1ccc(NNc2c3ccccc3nc3c(C(=O)Nc4ccc(S(=O)(=O)Nc5ncccn5)cc4)cccc23)cc1,> 100 µM
13,O=c1oc2ccccc2cc1-c1cc2ccccn2c1,> 100 µM
14,CC(=O)CCn1c(=S)sc2ccccc21,> 100 µM
15,CC1CC(OP(=O)(OCc2ccccc2)OCc2ccccc2)[C@@H](OCc2ccccc2)C(OCc2ccccc2)C1OCc1ccccc1 (some centres undefined),> 100 µM
16,CCO/C(O)=C(/C(=N)N1CCOCC1)C(=O)Nc1ccc(F)cc1,> 100 µM
17,C[C@H]1[C@H]2[C@H]3CC[C@@H]4[C@@]5(C)CC[C@H](O)C(C)(C)[C@@H]5CC[C@@]4(C)[C@]3(C)C[C@H](O)[C@@]2(C)C[C@H]2O[C@]21C,39.4 µM
18,N#C[C@H](c1ccccn1)c1nc2ccccc2nc1Cl,> 100 µM
19,O=C1COc2cccnc2N1CCCCO,> 100 µM
20,O=C(O)CCCc1nc2c(n1Cc1ccccc1)C(=O)c1ccccc1C2=O,80.1 µM

# Tested on: DU-145 prostate
# Test: inhibition of tumour cell growth, NCI panel, 48 h
row,SMILES,TGI
1,Cc1ccc(S(=O)(=O)c2[nH]cc(/C(=C\C3CCCCC3)[N+](=O)[O-])c2C2CCCCC2)cc1,1.49 µM
2,Nc1ccc2c(c1)C(=O)N1CCC[C@H]1C(=O)N2,> 100 µM
3,CO/N=C(\C(=O)OC(=NC1CCCCC1)NC1CCCCC1)c1csc(NC(c2ccccc2)(c2ccccc2)c2ccccc2)n1,> 10 µM
4,N#Cc1n[nH]n(-c2ccc(Br)cc2)c1=O,> 100 µM
5,N=C(N)C1CN(CCc2c[nH]c3ccccc23)C(=O)NC1=O (centres undefined),> 100 µM
6,CC1(C)[C@@H](Cn2ccc(=O)[nH]c2=O)CC[C@@]1(C)CO,> 100 µM
7,CCCNC(=O)NNC(=O)c1c[nH]c2nc(C)ccc2c1=O,> 100 µM
8,C=CCCON(C(=O)OC(C)(C)C)C(C)(C)C,> 100 µM
9,NC(N)=NS(=O)(=O)c1ccc(NNc2c3ccccc3nc3c(C(=O)Nc4ccc(S(=O)(=O)Nc5ncccn5)cc4)cccc23)cc1,> 100 µM
10,O=c1oc2ccccc2cc1-c1cc2ccccn2c1,> 100 µM
11,CC(=O)CCn1c(=S)sc2ccccc21,> 100 µM
12,CC1CC(OP(=O)(OCc2ccccc2)OCc2ccccc2)[C@@H](OCc2ccccc2)C(OCc2ccccc2)C1OCc1ccccc1 (some centres undefined),> 100 µM
13,CCO/C(O)=C(/C(=N)N1CCOCC1)C(=O)Nc1ccc(F)cc1,> 100 µM
14,C[C@H]1[C@H]2[C@H]3CC[C@@H]4[C@@]5(C)CC[C@H](O)C(C)(C)[C@@H]5CC[C@@]4(C)[C@]3(C)C[C@H](O)[C@@]2(C)C[C@H]2O[C@]21C,31.5 µM
15,O=C1COc2cccnc2N1CCCCO,> 100 µM
16,O=C(O)CCCc1nc2c(n1Cc1ccccc1)C(=O)c1ccccc1C2=O,> 100 µM
